In patent US11261209B2, “Enhanced coupling of stereodefined oxazaphospholidine phosphoramidite monomers to nucleoside or oligonucleotide” (Roche Innovation Center Copenhagen A/S, priority 2016, dated 2022):
Entries after “also recorded” stand apart in the source; their conditions may differ.

Experiments:
[1] = Stability of amidite in solution by HPLC-MS (UV 254 nm, normalised to 0 hours); assay type: physicochemical
Procedure: Stability Determination Method: To complete the analysis the stability of the amidite was investigated using an Agilent 1100 series HPLC-MS with a gradient from 80% A (1% NH4OH in H2O) to 100% B (20% A in MeCN) and a Waters Xterra MS C18 2.1×100 mm column. The mass and UV peak of the mother compound was identified at 0 hours and at 24 hours. Hereafter, the relative stability compared to other by-products was reported by integrating the UV chromatogram (254 nm) and normalizing the area to the chromatogram recorded at 0 hours (FIG. 2).
To a 1.5 mL vial was added 0.013 mmol of amidite after which the solid material was dissolved in 0.13 mL of solvent (with and without Et3N, approximately 5-10 eq). Hereafter, the vial was capped, vortexed, and finally left at room temperature for 24 hours. To investigate the stability of the amidite an Agilent 1100 series HPLC-MS with a gradient from 80% A (1% NH4OH in H2O) to 100% B (20% A in MeCN) and a Waters Xterra MS C18 2.1×100 mm column was used. The mass and UV peak of the mother compound was identified at 0 hours and at 24 hours. Hereafter, the relative stability compared to other by-products was reported. This was again repeated after 48 hours.

[2] = Solubility of oxazaphospholidine phosphoramidite monomers in solvent, visual examination; assay type: physicochemical; details: for Soluble after: 0 h MeCN + 2.5% pyridine / Soluble after: 0 h MeCN / Soluble after: 24 h MeCN + 2.5% pyridine / Soluble after: 24 h MeCN: 0.013 mmol amidite in 0.13 mL, room temperature; for Solubility after 24 hours in MeCN with addition of pyridine: MeCN with addition of pyridine (2.5%)
Procedure: To a 1.5 mL vial was added 0.013 mmol of amidite after which the solid material was dissolved in 0.13 mL of solvent. Hereafter, the vial was capped, vortexed, and finally left at room temperature for 24 hours. Then, the dissolved material was visually examined regarding the solubility (FIG. 1). If the solution appeared cloudy or otherwise non-homogenous the solubility was set to “no”. If the solution appeared completely homogenous the solubility was set to “yes” (examination repeated after 24 hours).
Solubility of the following monomers was determined as per example 7.

Question: For `COc1ccc(C(OCC23COC(C(n4cnc5c(NC(=O)c6ccccc6)ncnc54)O2)C3OP2OC(c3ccccc3)C3CCCN32)(c2ccccc2)c2ccc(OC)cc2)cc1` [L-LNA A], which “Stability in MeCN with Et3N after 24 hours” value ([1]; MeCN + Et3N approximately 5-10 eq, 24 hours) is on record?
Answer: completely stable

Question: What about the “Stability in MeCN with Et3N after 48 hours” value ([1]; MeCN + Et3N approximately 5-10 eq, 48 hours) of the same compound?
Answer: majority of the L-LNA A is preserved

Question: And the “Stability in MeCN after 24 hours” value ([1]; MeCN only, 24 hours, room temperature)?
Answer: most of the L-LNA A was degraded

Question: And the “Stability in MeCN after 48 hours” value ([1]; MeCN only, 48 hours, room temperature)?
Answer: completely degraded

Question: Which “Soluble after: 0 h MeCN + 2.5% pyridine” value [2] does the source give for `COc1ccc(C(OC[C@H]2O[C@@H](n3ccc(NC(C)=O)nc3=O)C[C@@H]2O[P@@]2O[C@H](c3ccccc3)[C@@H]3CCCN32)(c2ccccc2)c2ccc(OC)cc2)cc1` [L-DNA C] here?
Answer: Yes

Question: And the “Soluble after: 0 h MeCN” value ([2]; MeCN)?
Answer: Yes

Question: What about the “Soluble after: 24 h MeCN + 2.5% pyridine” value [2] of the same compound?
Answer: Yes

Question: And the “Soluble after: 24 h MeCN” value ([2]; MeCN)?
Answer: No

Question: Which “Soluble after: 0 h MeCN + 2.5% pyridine” value [2] does the source give for `COc1ccc(C(OC[C@H]2O[C@@H](n3cnc4c(NC(=O)c5ccccc5)ncnc43)C[C@@H]2O[P@]2O[C@@H](c3ccccc3)[C@H]3CCCN32)(c2ccccc2)c2ccc(OC)cc2)cc1` [D-DNA A] here?
Answer: Yes

Question: What about the “Soluble after: 0 h MeCN” value ([2]; MeCN) of the same compound?
Answer: Yes

Question: What about the “Soluble after: 24 h MeCN + 2.5% pyridine” value [2] of the same compound?
Answer: Yes

Question: And the “Soluble after: 24 h MeCN” value ([2]; MeCN)?
Answer: No

Question: What about the “Solubility after 24 hours in MeCN with addition of pyridine” value [2] of the same compound?
Answer: solubility of the monomer is preserved

Question: What about the “Solubility after 24 hours in MeCN” value ([2]; MeCN) of the same compound?
Answer: not soluble

Question: For `COc1ccc(C(OCC23COC(C(n4cnc5c(=O)[nH]c(N=CN(C)C)nc54)O2)C3OP2OC(c3ccccc3)C3CCCN32)(c2ccccc2)c2ccc(OC)cc2)cc1` [L-LNA G-DMF], which “Soluble after: 0 h MeCN + 2.5% pyridine” value [2] is on record?
Answer: No

Question: What about the “Soluble after: 0 h MeCN” value ([2]; MeCN) of the same compound?
Answer: No

Question: What about the “Soluble after: 24 h MeCN + 2.5% pyridine” value [2] of the same compound?
Answer: No

Question: And the “Soluble after: 24 h MeCN” value ([2]; MeCN)?
Answer: No

Question: And the “Solubility in most solvents” value ([2]; MeCN, MeCN:DCE, MeCN:Tol, MeCN:acetone, Dioxane, and THF)?
Answer: unsoluble

Question: What about the “Solubility in remaining solvents” value ([2]; MeCN:DCM, DMF, DMSO, NMP, DCM, DCE, and Toluene) of the same compound?
Answer: soluble

Question: And the “Solubility in acetonitrile solvents” value ([2]; acetonitrile solvents)?
Answer: poorly soluble

Question: What about the “Amidite left after 24 hours” value ([1]; DCM (best solvent), 24 hours, room temperature) of the same compound?
Answer: 10%

Question: And the “Stability in the solvents where the monomer is soluble” value ([1]; MeCN:DCM, DMF, DMSO, NMP, DCM, DCE, and Toluene, 24 hours)?
Answer: tremendous instability

Question: What does the source list for `COc1ccc(C(OCC23COC(C(n4cnc5c(NC(=O)c6ccccc6)ncnc54)O2)C3OP2OC(c3ccccc3)C3CCCN32)(c2ccccc2)c2ccc(OC)cc2)cc1` [D-LNA A]?
Answer: Soluble after: 0 h MeCN + 2.5% pyridine [2]: Yes; Soluble after: 0 h MeCN ([2]; MeCN): Yes; Soluble after: 24 h MeCN + 2.5% pyridine [2]: Yes; Soluble after: 24 h MeCN ([2]; MeCN): No; Solubility after 24 hours in MeCN with addition of pyridine [2]: solubility of the monomer is preserved; Solubility after 24 hours in MeCN ([2]; MeCN): not soluble

Question: Which results are given for `COc1ccc(C(OCC23COC(C(n4cnc5c(=O)[nH]c(N=CN(C)C)nc54)O2)C3OP2OC(c3ccccc3)C3CCCN32)(c2ccccc2)c2ccc(OC)cc2)cc1` [D-LNA G]?
Answer: Soluble after: 0 h MeCN + 2.5% pyridine [2]: Yes; Soluble after: 0 h MeCN ([2]; MeCN): Yes; Soluble after: 24 h MeCN + 2.5% pyridine [2]: Yes; Soluble after: 24 h MeCN ([2]; MeCN): Yes

Question: Which results are given for `COc1ccc(C(OC[C@H]2O[C@@H](n3cnc4c(NC(=O)c5ccccc5)ncnc43)C[C@@H]2O[P@@]2O[C@H](c3ccccc3)[C@@H]3CCCN32)(c2ccccc2)c2ccc(OC)cc2)cc1` [L-DNA A]?
Answer: Soluble after: 0 h MeCN + 2.5% pyridine [2]: Yes; Soluble after: 0 h MeCN ([2]; MeCN): Yes; Soluble after: 24 h MeCN + 2.5% pyridine [2]: Yes; Soluble after: 24 h MeCN ([2]; MeCN): No; Solubility after 24 hours in MeCN with addition of pyridine [2]: solubility of the monomer is preserved; also recorded: kept in solution; Solubility after 24 hours in MeCN ([2]; MeCN): not soluble; also recorded: not sufficient to keep the monomer in solution

Question: For `COc1ccc(C(OC[C@H]2O[C@@H](n3cc(C)c(=O)[nH]c3=O)C[C@@H]2O[P@@]2O[C@H](c3ccccc3)[C@@H]3CCCN32)(c2ccccc2)c2ccc(OC)cc2)cc1` [L-DNA T], which “Soluble after: 0 h MeCN + 2.5% pyridine” value [2] is on record?
Answer: Yes

Question: And the “Soluble after: 0 h MeCN” value ([2]; MeCN)?
Answer: Yes

Question: And the “Soluble after: 24 h MeCN + 2.5% pyridine” value [2]?
Answer: Yes

Question: What about the “Soluble after: 24 h MeCN” value ([2]; MeCN) of the same compound?
Answer: No

Question: What does the source list for `COc1ccc(C(OC[C@H]2O[C@@H](n3cc(C)c(=O)[nH]c3=O)C[C@@H]2O[P@]2O[C@@H](c3ccccc3)[C@H]3CCCN32)(c2ccccc2)c2ccc(OC)cc2)cc1` [D-DNA T]?
Answer: Soluble after: 0 h MeCN + 2.5% pyridine [2]: Yes; Soluble after: 0 h MeCN ([2]; MeCN): Yes; Soluble after: 24 h MeCN + 2.5% pyridine [2]: Yes; Soluble after: 24 h MeCN ([2]; MeCN): No

Question: What does the source list for `COc1ccc(C(OC[C@H]2O[C@@H](n3cnc4c(=O)[nH]c(/N=C/N(C)C)nc43)C[C@@H]2O[P@@]2O[C@H](c3ccccc3)[C@@H]3CCCN32)(c2ccccc2)c2ccc(OC)cc2)cc1` [L-DNA G]?
Answer: Soluble after: 0 h MeCN + 2.5% pyridine [2]: Yes; Soluble after: 0 h MeCN ([2]; MeCN): Yes; Soluble after: 24 h MeCN + 2.5% pyridine [2]: Yes; Soluble after: 24 h MeCN ([2]; MeCN): No

Question: Which “Soluble after: 0 h MeCN + 2.5% pyridine” value [2] does the source give for `COc1ccc(C(OC[C@H]2O[C@@H](n3cnc4c(=O)[nH]c(/N=C/N(C)C)nc43)C[C@@H]2O[P@]2O[C@@H](c3ccccc3)[C@H]3CCCN32)(c2ccccc2)c2ccc(OC)cc2)cc1` [D-DNA G] here?
Answer: Yes

Question: What about the “Soluble after: 0 h MeCN” value ([2]; MeCN) of the same compound?
Answer: Yes

Question: What about the “Soluble after: 24 h MeCN + 2.5% pyridine” value [2] of the same compound?
Answer: Yes

Question: What about the “Soluble after: 24 h MeCN” value ([2]; MeCN) of the same compound?
Answer: No

Question: For `COc1ccc(C(OCC23COC(C(n4cc(C)c(=O)[nH]c4=O)O2)C3OP2OC(c3ccccc3)C3CCCN32)(c2ccccc2)c2ccc(OC)cc2)cc1` [D-LNA T], which “Soluble after: 0 h MeCN + 2.5% pyridine” value [2] is on record?
Answer: Yes

Question: What about the “Soluble after: 0 h MeCN” value ([2]; MeCN) of the same compound?
Answer: Yes

Question: What about the “Soluble after: 24 h MeCN + 2.5% pyridine” value [2] of the same compound?
Answer: Yes

Question: And the “Soluble after: 24 h MeCN” value ([2]; MeCN)?
Answer: Yes

Question: Which “Soluble after: 0 h MeCN + 2.5% pyridine” value [2] does the source give for `COc1ccc(C(OC[C@H]2O[C@@H](n3ccc(NC(C)=O)nc3=O)C[C@@H]2O[P@]2O[C@@H](c3ccccc3)[C@H]3CCCN32)(c2ccccc2)c2ccc(OC)cc2)cc1` [D-DNA C] here?
Answer: Yes

Question: And the “Soluble after: 0 h MeCN” value ([2]; MeCN)?
Answer: Yes

Question: And the “Soluble after: 24 h MeCN + 2.5% pyridine” value [2]?
Answer: Yes

Question: What about the “Soluble after: 24 h MeCN” value ([2]; MeCN) of the same compound?
Answer: No

Question: For `COc1ccc(C(OC[C@@]23CO[C@@H]([C@H](n4cnc5c(=O)[nH]c(NC(=O)C(C)C)nc54)O2)[C@@H]3O[P@]2O[C@H](c3ccccc3)[C@@H]3CCCN32)(c2ccccc2)c2ccc(OC)cc2)cc1` [L-LNA-G-iBu], which “Soluble after: 0 h MeCN + 2.5% pyridine” value [2] is on record?
Answer: Yes

Question: What about the “Soluble after: 0 h MeCN” value ([2]; MeCN) of the same compound?
Answer: Yes

Question: And the “Soluble after: 24 h MeCN + 2.5% pyridine” value [2]?
Answer: Yes

Question: And the “Solubility in all solvents investigated” value ([2]; all solvents investigated (12 different))?
Answer: soluble
